Test results taken from US12391679B2, “Benzamide-substituted bicyclic imidazo- and pyrazolo-fused -pyridine, -pyrimide, and -pyridazine compounds for treatment of inflammatory diseases” (ONCO3R Therapeutics BV, priority 2019, dated 2025).

What was measured:
Assay type in all cases: biochemical
SIK2 = target: T1, SIK2 (Homo sapiens, UniProt Q9H0K1); assay: ADP-Glo kinase assay, SIK2
T1 construct: purchased ThermoFisher Scientific PV4792
In short: (§1)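 Steps: add enzyme–substrate mixture; start with diluted ATP; incubate RT 120 min; add ADP-Glo Reagent to terminate and remove unconsumed ATP, 40 min; add detection reagent, 30 min; read luminescence. DMSO at 1% and staurosporine at 10 μM (final) define assay windows.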

SIK3 = target: T2, SIK3 (Homo sapiens, UniProt Q9Y2K2); assay: ADP-Glo kinase assay, SIK3
T2 construct: purchased SignalChem S12-11G-100
T2 sequence (Q9Y2K2 59-365 limits assumed): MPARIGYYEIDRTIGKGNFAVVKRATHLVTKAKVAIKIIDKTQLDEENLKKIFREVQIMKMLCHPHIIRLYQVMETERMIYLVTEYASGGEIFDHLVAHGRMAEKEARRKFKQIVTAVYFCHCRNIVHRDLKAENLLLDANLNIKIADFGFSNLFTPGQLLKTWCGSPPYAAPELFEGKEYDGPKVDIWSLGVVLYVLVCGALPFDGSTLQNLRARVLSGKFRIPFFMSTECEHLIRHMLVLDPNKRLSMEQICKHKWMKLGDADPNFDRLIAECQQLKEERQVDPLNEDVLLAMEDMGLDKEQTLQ
In short: as §1

SIK1 = target: T3, SIK1 (Homo sapiens, UniProt P57059); assay: ADP-Glo kinase assay, SIK1
T3 construct: purchased Carna Biosciences 02-131
T3 sequence (P57059 whole entry): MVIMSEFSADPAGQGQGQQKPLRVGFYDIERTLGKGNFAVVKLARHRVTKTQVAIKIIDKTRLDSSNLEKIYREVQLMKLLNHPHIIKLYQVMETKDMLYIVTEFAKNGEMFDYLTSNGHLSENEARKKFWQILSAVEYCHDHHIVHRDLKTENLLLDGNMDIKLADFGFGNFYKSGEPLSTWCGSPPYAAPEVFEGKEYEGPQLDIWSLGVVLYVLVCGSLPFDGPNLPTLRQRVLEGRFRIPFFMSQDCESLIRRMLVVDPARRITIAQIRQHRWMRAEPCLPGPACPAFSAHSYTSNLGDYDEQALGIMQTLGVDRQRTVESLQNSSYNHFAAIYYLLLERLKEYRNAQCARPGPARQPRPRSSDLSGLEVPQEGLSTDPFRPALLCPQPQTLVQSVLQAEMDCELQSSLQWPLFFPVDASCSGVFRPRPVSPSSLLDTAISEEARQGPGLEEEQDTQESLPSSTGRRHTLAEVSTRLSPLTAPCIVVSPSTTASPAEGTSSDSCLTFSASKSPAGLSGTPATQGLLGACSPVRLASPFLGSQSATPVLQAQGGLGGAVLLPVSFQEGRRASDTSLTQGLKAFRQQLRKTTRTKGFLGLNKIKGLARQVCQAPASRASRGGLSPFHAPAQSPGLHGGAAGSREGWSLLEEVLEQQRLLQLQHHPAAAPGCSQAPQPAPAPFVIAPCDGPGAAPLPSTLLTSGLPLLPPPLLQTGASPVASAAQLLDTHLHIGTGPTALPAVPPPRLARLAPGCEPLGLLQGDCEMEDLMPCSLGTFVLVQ
In short: as §1

T1 sequence (Q9H0K1 whole entry): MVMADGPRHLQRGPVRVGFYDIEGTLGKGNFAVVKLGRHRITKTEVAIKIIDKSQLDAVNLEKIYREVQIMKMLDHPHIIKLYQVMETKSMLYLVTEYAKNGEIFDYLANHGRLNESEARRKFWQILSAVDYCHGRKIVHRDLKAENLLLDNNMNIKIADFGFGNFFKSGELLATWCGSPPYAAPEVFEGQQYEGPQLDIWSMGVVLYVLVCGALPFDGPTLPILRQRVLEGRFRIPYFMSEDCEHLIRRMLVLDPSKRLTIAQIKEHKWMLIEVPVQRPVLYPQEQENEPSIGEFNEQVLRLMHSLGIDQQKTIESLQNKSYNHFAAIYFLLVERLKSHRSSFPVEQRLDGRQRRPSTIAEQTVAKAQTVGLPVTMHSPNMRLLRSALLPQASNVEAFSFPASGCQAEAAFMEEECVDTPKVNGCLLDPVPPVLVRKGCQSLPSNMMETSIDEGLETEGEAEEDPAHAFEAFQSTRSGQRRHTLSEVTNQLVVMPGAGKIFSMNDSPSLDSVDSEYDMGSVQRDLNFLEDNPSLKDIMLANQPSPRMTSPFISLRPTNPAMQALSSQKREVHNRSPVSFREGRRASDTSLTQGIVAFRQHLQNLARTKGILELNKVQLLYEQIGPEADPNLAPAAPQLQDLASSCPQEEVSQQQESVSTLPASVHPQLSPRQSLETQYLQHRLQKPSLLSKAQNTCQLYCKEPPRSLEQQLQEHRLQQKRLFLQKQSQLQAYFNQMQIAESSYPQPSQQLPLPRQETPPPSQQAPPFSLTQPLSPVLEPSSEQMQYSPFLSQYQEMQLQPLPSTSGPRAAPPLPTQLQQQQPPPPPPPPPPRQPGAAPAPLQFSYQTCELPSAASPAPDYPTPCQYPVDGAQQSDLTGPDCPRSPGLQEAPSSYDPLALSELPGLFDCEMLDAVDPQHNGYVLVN

Row | SMILES | IC50 (SIK2) | IC50 (SIK3) | IC50 (SIK1)
1 | CCCCOC(=O)NC(C)(C)c1ccc2c(-c3cc(OC)c(C(=O)N[C@@H]4C[C@@H]4F)c(OC(F)F)c3)cnn2c1 [Cpd 264, butyl N-[1-[3-[3-(difluoromethoxy)-4-[[(1R,2S)-2-fluorocyclopropyl]carbamoyl]-5-methoxy-phenyl]pyrazolo[1,5-a]pyridin-6-yl]-1-methyl-ethyl]carbamate] | > 500 nM | 10 to 100 nM | > 500 nM
2 | COc1cc(-c2cnc3cc(C(C)(C)c4noc(C)n4)ccn23)cc(OC(F)F)c1C(=O)NC1CC1 [Cpd 61, N-cyclopropyl-2-(difluoromethoxy)-6-methoxy-4-[7-[1-methyl-1-(5-methyl-1,2,4-oxadiazol-3-yl)ethyl]imidazo[1,2-a]pyridin-3-yl]benzamide] | > 500 nM | 10 to 100 nM | > 500 nM
3 | COc1cc(-c2cnn3cc(C(C)(C)S(C)(=O)=O)ccc23)cc(OC(F)F)c1C(=O)N[C@@H]1C[C@@H]1F [Cpd 246, 2-(difluoromethoxy)-N-[(1R,2S)-2-fluorocyclopropyl]-6-methoxy-4-[6-(1-methyl-1-methylsulfonyl-ethyl)pyrazolo[1,5-a]pyridin-3-yl]benzamide] | > 500 nM | 10 to 100 nM | > 500 nM
4 | COc1cc(-c2cnc3cc(C(C)(C)C(O)C(C)C)ccn23)cc(OC(F)F)c1C(=O)NC1CC1 (stereo not drawn) [Cpd 202, N-cyclopropyl-2-(difluoromethoxy)-4-[7-(2-hydroxy-1,1,3-trimethyl-butyl)imidazo[1,2-a]pyridin-3-yl]-6-methoxy-benzamide] | > 500 nM | 10 to 100 nM | > 500 nM
5 | COc1cc(-c2cnc3cc(C4(C#N)COC4)ccn23)cnc1C(=O)NCC(F)(F)F [Cpd 125, 5-[7-(3-cyanooxetan-3-yl)imidazo[1,2-a]pyridin-3-yl]-3-methoxy-N-(2,2,2-trifluoroethyl)pyridine-2-carboxamide] | > 500 nM | > 500 nM | > 500 nM
6 | COc1cc(-c2cnc3cc(C4(C(=O)N5CCOCC5)CC4)ccn23)cc(OC(F)F)c1C(=O)NC1CC1 [Cpd 141, N-cyclopropyl-2-(difluoromethoxy)-6-methoxy-4-[7-[1-(morpholine-4-carbonyl)cyclopropyl]imidazo[1,2-a]pyridin-3-yl]benzamide] | > 500 nM | 100 to 500 nM | > 500 nM
7 | COc1cc(-c2cnc3cc(C4CCOCC4)ccn23)cc(OC(F)F)c1C(=O)NC1CC1 [Cpd 108, N-cyclopropyl-2-(difluoromethoxy)-6-methoxy-4-(7-tetrahydropyran-4-ylimidazo[1,2-a]pyridin-3-yl)benzamide] | 10 to 100 nM | 0.01 to 10 nM | 100 to 500 nM
8 | COCCNC(=O)C1(c2ccn3c(-c4cc(OC)c(C(=O)NC5CC5)c(OC(F)F)c4)cnc3c2)CC1 [Cpd 142, N-cyclopropyl-2-(difluoromethoxy)-6-methoxy-4-[7-[1-(2-methoxyethylcarbamoyl)cyclopropyl]imidazo[1,2-a]pyridin-3-yl]benzamide] | > 500 nM | 10 to 100 nM | > 500 nM
9 | CCC1(NC(=O)c2c(OC)cc(-c3cnc4cc(C(C)(C)C#N)ccn34)cc2OC(F)F)CC1 [Cpd 83, 4-[7-(1-cyano-1-methyl-ethyl)imidazo[1,2-a]pyridin-3-yl]-2-(difluoromethoxy)-N-(1-ethylcyclopropyl)-6-methoxy-benzamide] | > 500 nM | > 500 nM | > 500 nM
10 | COc1cc(-c2cnc3cc(C4(CNC(C)C)CC4)ccn23)cc(OC(F)F)c1C(=O)NC1CC1 [Cpd 151, N-cyclopropyl-2-(difluoromethoxy)-4-[7-[1-[(isopropylamino)methyl]cyclopropyl]imidazo[1,2-a]pyridin-3-yl]-6-methoxy-benzamide] | > 500 nM | 100 to 500 nM | > 500 nM
11 | COc1cc(-c2cnc3cc(C4CCN(C(=O)OC(C)(C)C)CC4)ccn23)cc(OC(F)F)c1C(=O)NC1CC1 [Cpd 60, tert-butyl 4-[3-[4-(cyclopropylcarbamoyl)-3-(difluoromethoxy)-5-methoxy-phenyl]imidazo[1,2-a]pyridin-7-yl]piperidine-1-carboxylate] | 10 to 100 nM | 0.01 to 10 nM | 100 to 500 nM
12 | CCN(CC)C(=O)C1(c2ccn3c(-c4cc(OC)c(C(=O)NC5CC5)c(OC(F)F)c4)cnc3c2)CC1 [Cpd 143, N-cyclopropyl-4-[7-[1-(diethylcarbamoyl)cyclopropyl]imidazo[1,2-a]pyridin-3-yl]-2-(difluoromethoxy)-6-methoxy-benzamide] | > 500 nM | 100 to 500 nM | > 500 nM
13 | COc1cc(-c2cnc3cc(C4CCCN4C(=O)OC(C)(C)C)ccn23)cc(OC(F)F)c1C(=O)NC1CC1 (stereo not drawn) [Cpd 180, tert-butyl 2-[3-[4-(cyclopropylcarbamoyl)-3-(difluoromethoxy)-5-methoxy-phenyl]imidazo[1,2-a]pyridin-7-yl]pyrrolidine-1-carboxylate] | 100 to 500 nM | 10 to 100 nM | 100 to 500 nM
14 | COc1cc(-c2cnc3cc(C(C)(C)CN4CCCC4)ccn23)cc(OC(F)F)c1C(=O)NC1CC1 [Cpd 161, N-cyclopropyl-2-(difluoromethoxy)-4-[7-(1,1-dimethyl-2-pyrrolidin-1-yl-ethyl)imidazo[1,2-a]pyridin-3-yl]-6-methoxy-benzamide] | > 500 nM | 10 to 100 nM | > 500 nM
15 | COc1cc(-c2cnc3cc(C4(C#N)CNC4)ccn23)cc(OC(F)F)c1C(=O)NC1CC1 [Cpd 110, 4-[7-(3-cyanoazetidin-3-yl)imidazo[1,2-a]pyridin-3-yl]-N-cyclopropyl-2-(difluoromethoxy)-6-methoxy-benzamide] | > 500 nM | 10 to 100 nM | > 500 nM
16 | COc1cc(-c2cnc3cc(C(C)N4CC5(COC5)C4)ccn23)cc(OC(F)F)c1C(=O)NC1CC1 (stereo not drawn) [Cpd 152, N-cyclopropyl-2-(difluoromethoxy)-6-methoxy-4-[7-[1-(2-oxa-6-azaspiro[3.3]heptan-6-yl)ethyl]imidazo[1,2-a]pyridin-3-yl]benzamide] | > 500 nM | 10 to 100 nM | > 500 nM
17 | COc1cc(-c2cnc3cc(C(C)(C)C#N)ccn23)cc(OC(F)F)c1C(=O)NCc1ccn(C)n1 [Cpd 52, 4-[7-(1-cyano-1-methyl-ethyl)imidazo[1,2-a]pyridin-3-yl]-2-(difluoromethoxy)-6-methoxy-N-[(1-methylpyrazol-3-yl)methyl]benzamide] | > 500 nM | > 500 nM | > 500 nM
18 | COc1cc(-c2cnc3cc(C4CCC4)ccn23)cc(OC(F)F)c1C(=O)NC1CC1 [Cpd 159, 4-(7-cyclobutylimidazo[1,2-a]pyridin-3-yl)-N-cyclopropyl-2-(difluoromethoxy)-6-methoxy-benzamide] | 10 to 100 nM | 0.01 to 10 nM | 10 to 100 nM
19 | COc1cc(-c2cnc3cc(C(C)N4CCO[C@H](CO)C4)ccn23)cc(OC(F)F)c1C(=O)NC1CC1 (stereo partly drawn) [Cpd 157, N-cyclopropyl-2-(difluoromethoxy)-4-[7-[1-[(2S)-2-(hydroxymethyl)morpholin-4-yl]ethyl]imidazo[1,2-a]pyridin-3-yl]-6-methoxy-benzamide] | > 500 nM | 10 to 100 nM | > 500 nM
20 | COc1cc(-c2cnc3cc(C4CN(C(=O)OC(C)(C)C)C4)ccn23)cc(OC(F)F)c1C(=O)NC1CC1 [Cpd 59, tert-butyl 3-[3-[4-(cyclopropylcarbamoyl)-3-(difluoromethoxy)-5-methoxy-phenyl]imidazo[1,2-a]pyridin-7-yl]azetidine-1-carboxylate] | 10 to 100 nM | 0.01 to 10 nM | 10 to 100 nM
21 | COCCOc1cc(-c2cnn3cc(C(C)(C)C#N)ccc23)cc(OC)c1C(=O)NC1CC1 [Cpd 260, 4-[6-(1-cyano-1-methyl-ethyl)pyrazolo[1,5-a]pyridin-3-yl]-N-cyclopropyl-2-methoxy-6-(2-methoxyethoxy)benzamide] | > 500 nM | 100 to 500 nM | > 500 nM
22 | COc1cc(-c2cnc3cc(C(C)N4CCCC4)ccn23)cc(OC(F)F)c1C(=O)NC1CC1 (stereo not drawn) [Cpd 153, N-cyclopropyl-2-(difluoromethoxy)-6-methoxy-4-[7-(1-pyrrolidin-1-ylethyl)imidazo[1,2-a]pyridin-3-yl]benzamide] | > 500 nM | 10 to 100 nM | > 500 nM
23 | CCNC(=O)C(C)(C)c1ccc2c(-c3cc(OC)c(C(=O)NC4CC4)c(OC(F)F)c3)cnn2c1 [Cpd 249, N-cyclopropyl-2-(difluoromethoxy)-4-[6-[2-(ethylamino)-1,1-dimethyl-2-oxo-ethyl]pyrazolo[1,5-a]pyridin-3-yl]-6-methoxy-benzamide] | > 500 nM | 10 to 100 nM | > 500 nM
24 | COc1cc(-c2cnc3cc(C4(N5CCOCC5)COC4)ccn23)cc(OC(F)F)c1C(=O)NC1CC1 [Cpd 222, N-cyclopropyl-2-(difluoromethoxy)-6-methoxy-4-[7-(3-morpholinooxetan-3-yl)imidazo[1,2-a]pyridin-3-yl]benzamide] | > 500 nM | 100 to 500 nM | > 500 nM
25 | COc1cc(-c2cnc3cc(C(C)(C)C#N)ccn23)cc(OC(F)F)c1C(=O)N1CCC1C (stereo not drawn) [Cpd 104, 2-[3-[3-(difluoromethoxy)-5-methoxy-4-(2-methylazetidine-1-carbonyl)phenyl]imidazo[1,2-a]pyridin-7-yl]-2-methyl-propanenitrile] | > 500 nM | > 500 nM | > 500 nM
26 | COc1cc(-c2cnc3cc(C4CCOCC4)ccn23)cc(OC)c1C(=O)NCC(F)(F)F [Cpd 37, 2,6-dimethoxy-4-(7-tetrahydropyran-4-ylimidazo[1,2-a]pyridin-3-yl)-N-(2,2,2-trifluoroethyl)benzamide] | 100 to 500 nM | 10 to 100 nM | > 500 nM
